Here are results for ten molecules from ChEMBL document CHEMBL1201862, “PubChem BioAssay data set” (2004).

Test systems include A498; ACHN; CAKI-1; CCRF-CEM; COLO 205; DU-145; EKVX; HCT-116; HL-60; IGROV-1; MOLT-4; Malme-3M; NCI-H522; SF-295; SK-MEL-5; SK-OV-3; SNB-19; SNB-75; SW-620; TK-10.
Common to all, as to experiment: NCI anticancer screen, dose series, 48 h

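Cultured in 96-well plates, cells were exposed to test compound for 48 hours across five concentrations. GI50 = concentration required for 50% inhibition of growth.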 The source made the active and inactive calls. No stated cut-off is given here; in the data, active = GI50 up to about 1.1 µM and inactive = higher. Where only a bound is given, the exact number is not on record here.

As to `COc1cc(C2=C(c3cc(OC)c4ccccc4c3OC)C(=O)c3ccccc3C2=O)c(OC)c2ccccc12`, the GI50 in the assay on A498, in the assay with ACHN, in the assay with CAKI-1, with CCRF-CEM, in the assay with COLO 205 and in the assay on DU-145 was > 100 µM (inactive) in each case. In addition, the GI50 in the assay on EKVX is > 100 µM (inactive); with HCT-116 it was > 100 µM (inactive); in the assay with HL-60 it was 10.2 µM (inactive); in the assay on IGROV-1, > 100 µM (inactive); in the assay with MOLT-4 it was > 100 µM (inactive); in the assay with Malme-3M it was 62.5 µM (inactive). The GI50 in the assay with NCI-H522, in the assay on SF-295, with SK-MEL-5, in the assay on SK-OV-3, in the assay on SNB-19 and in the assay with SNB-75 was > 100 µM (inactive) each time. Besides, the GI50 in the assay on SW-620 and in the assay with TK-10 was > 100 µM (inactive) in each case.

With `Cc1ccc2c(c1)C(=O)/C(=N/Nc1ccc(Cl)cc1)CCO2`, the GI50 is > 100 µM (inactive) in the assay with A498; > 100 µM (inactive) in the assay with ACHN; > 100 µM (inactive) with CAKI-1; 46.7 µM (inactive) in the assay with CCRF-CEM; 63.5 µM (inactive) in the assay on COLO 205; > 100 µM (inactive) in the assay with DU-145. Further, the GI50 is > 100 µM (inactive) with EKVX; 50.7 µM (inactive) in the assay on HCT-116; 38.9 µM (inactive) in the assay with HL-60; > 100 µM (inactive) in the assay on IGROV-1; 71.3 µM (inactive) in the assay with MOLT-4; 46.7 µM (inactive) in the assay on Malme-3M. For the same molecule, the GI50 is 56.1 µM (inactive) with NCI-H522; 24.3 µM (inactive) in the assay on SF-295; 23.3 µM (inactive) with SK-MEL-5; > 100 µM (inactive) in the assay on SK-OV-3; > 100 µM (inactive) in the assay with SNB-19; > 100 µM (inactive) in the assay on SNB-75. The GI50 in the assay on SW-620 and in the assay on TK-10 was > 100 µM (inactive) in each case.

Regarding `O=c1cc(NNc2cccc3ccccc23)[nH]c(=O)[nH]1`, the GI50 was 19.8 µM (inactive) in the assay with A498; 16.5 µM (inactive) with ACHN; 14.7 µM (inactive) in the assay on CAKI-1; 10.1 µM (inactive) with CCRF-CEM; 17.3 µM (inactive) in the assay with COLO 205; 15.3 µM (inactive) in the assay with DU-145. Further, the GI50 in the assay on EKVX is 14.6 µM (inactive); with HCT-116, 17.4 µM (inactive); with HL-60, 2.9 µM (inactive); in the assay on IGROV-1, 15.4 µM (inactive); in the assay on MOLT-4, 17.7 µM (inactive); in the assay on Malme-3M, 17.8 µM (inactive). The GI50 with NCI-H522 was 14.8 µM (inactive); with SF-295, 17.5 µM (inactive); in the assay on SK-MEL-5 it was 15.8 µM (inactive); in the assay with SK-OV-3 it was 26.7 µM (inactive); in the assay on SNB-19 it was 14.3 µM (inactive); in the assay with SNB-75 it was 16.6 µM (inactive). Moreover, the GI50 in the assay on SW-620 was 20 µM (inactive); with TK-10, 19.7 µM (inactive).

Regarding `Cc1cccc2c1CC(C1OC(=O)c3ccccc31)C2=O` (stereo not drawn), the GI50 in the assay with A498, in the assay with ACHN, with CAKI-1, with CCRF-CEM, in the assay on COLO 205 and with DU-145 was > 100 µM (inactive) in each case. The GI50 in the assay with EKVX, in the assay with HCT-116, in the assay on HL-60, in the assay on IGROV-1, in the assay with MOLT-4 and in the assay with Malme-3M was > 100 µM (inactive) throughout. The GI50 in the assay with NCI-H522, in the assay with SF-295, with SK-MEL-5, in the assay on SK-OV-3, in the assay with SNB-19 and in the assay on SNB-75 was > 100 µM (inactive) throughout. Further, the GI50 in the assay with SW-620 and in the assay on TK-10 was > 100 µM (inactive) throughout.

Turning to `O=C1NC(N2CCCCC2)=N/C1=C\c1ccccc1O`, the GI50 with A498, in the assay with ACHN, in the assay on CAKI-1, in the assay on CCRF-CEM, in the assay with COLO 205 and with DU-145 was > 100 µM (inactive) each time. The GI50 is > 100 µM (inactive) with EKVX; > 100 µM (inactive) in the assay with HCT-116; 43.5 µM (inactive) with HL-60; > 100 µM (inactive) with IGROV-1; > 100 µM (inactive) with MOLT-4; 23 µM (inactive) in the assay on Malme-3M. Also, the GI50 is 19.8 µM (inactive) in the assay with NCI-H522; > 100 µM (inactive) in the assay on SF-295; 50.2 µM (inactive) with SK-MEL-5; > 100 µM (inactive) in the assay on SK-OV-3; > 100 µM (inactive) in the assay on SNB-19; 27.9 µM (inactive) in the assay on SNB-75. Further, the GI50 in the assay with SW-620 and in the assay with TK-10 was > 100 µM (inactive) each time.

With `Cc1ccc(N)c(S)c1`, the GI50 was 16.7 µM (inactive) in the assay with A498; 18.5 µM (inactive) in the assay on ACHN; 28.8 µM (inactive) in the assay on CAKI-1; 18 µM (inactive) with CCRF-CEM; 22.7 µM (inactive) with COLO 205; 15.7 µM (inactive) with DU-145. Further, the GI50 in the assay on EKVX is 16.2 µM (inactive); in the assay with HCT-116, 32.1 µM (inactive); in the assay with HL-60 it was 25.2 µM (inactive); in the assay on IGROV-1, 17.7 µM (inactive); with MOLT-4, 22 µM (inactive); with Malme-3M it was 30.5 µM (inactive). In addition, the GI50 in the assay with NCI-H522 was 17.9 µM (inactive); with SF-295, 18 µM (inactive); in the assay on SK-MEL-5, 16.5 µM (inactive); in the assay on SK-OV-3, 27.9 µM (inactive); with SNB-19, 21.1 µM (inactive); with SNB-75 it was 21.7 µM (inactive). Also, the GI50 is 17.6 µM (inactive) in the assay with SW-620 and 21.8 µM (inactive) in the assay with TK-10.

For `c1ccc([P+](CCCCCC[P+](c2ccccc2)(c2ccccc2)c2ccccc2)(c2ccccc2)c2ccccc2)cc1`, the GI50 in the assay on A498 is 5.04 µM (inactive); in the assay with ACHN, 50.8 µM (inactive); with CAKI-1 it was > 100 µM (inactive); with CCRF-CEM, 13.1 µM (inactive); in the assay with COLO 205, 2.68 µM (inactive); in the assay with DU-145 it was 11.9 µM (inactive). The GI50 was 54.5 µM (inactive) in the assay on EKVX; 4.51 µM (inactive) in the assay on HCT-116; 10.6 µM (inactive) with HL-60; 3.84 µM (inactive) with IGROV-1; 22.9 µM (inactive) with MOLT-4; 37.3 µM (inactive) in the assay on Malme-3M. In addition, the GI50 in the assay on NCI-H522 was 7.24 µM (inactive); with SF-295 it was 59.4 µM (inactive); in the assay on SK-OV-3 it was 62.2 µM (inactive); with SNB-19, 0.906 µM (active); in the assay with SNB-75 it was 5.2 µM (inactive); in the assay with SW-620, 18.5 µM (inactive). For the same molecule, in the assay with TK-10, the GI50 was 8.36 µM (inactive).

Turning to `CCOC(=O)O/N=C1/C(=C2/C(=O)Nc3ccccc32)Nc2ccccc21`, the GI50 was 1.47 µM (inactive) in the assay with A498; 4.41 µM (inactive) in the assay on ACHN; 1.86 µM (inactive) in the assay on CAKI-1; 2.87 µM (inactive) in the assay with CCRF-CEM; 15.5 µM (inactive) in the assay on COLO 205; 2.87 µM (inactive) in the assay on DU-145. The GI50 with EKVX was 2.54 µM (inactive); with HCT-116, 3.03 µM (inactive); in the assay with HL-60 it was 4.95 µM (inactive); in the assay with IGROV-1 it was 4.34 µM (inactive); with MOLT-4, 3.74 µM (inactive); in the assay on Malme-3M it was 10 µM (inactive). Moreover, the GI50 was 8.53 µM (inactive) in the assay on NCI-H522; 8.73 µM (inactive) with SF-295; 2.37 µM (inactive) in the assay on SK-MEL-5; 1.59 µM (inactive) with SK-OV-3; 18.7 µM (inactive) in the assay on SNB-19; 3.4 µM (inactive) with SNB-75. The values for the GI50 in the assay on SW-620 and in the assay on TK-10 were 5.21 µM (inactive) and 5.35 µM (inactive), respectively.

With `CC(C)(C)OC(=O)NC(Cc1ccc(OCc2ccccc2)cn1)C(=O)N1CCCCC1` (stereo not drawn), the GI50 with A498 was 34.5 µM (inactive); in the assay with ACHN it was 41.4 µM (inactive); in the assay on CAKI-1, 60.4 µM (inactive); in the assay on CCRF-CEM, 31.8 µM (inactive); in the assay on COLO 205, 18.6 µM (inactive); in the assay with DU-145, 33 µM (inactive). The GI50 is 37.1 µM (inactive) with EKVX; 40.8 µM (inactive) with HCT-116; 27 µM (inactive) with HL-60; 53.7 µM (inactive) in the assay on IGROV-1; 19.5 µM (inactive) in the assay with MOLT-4; 40.5 µM (inactive) in the assay with Malme-3M. The GI50 is 32.1 µM (inactive) with NCI-H522; 30.5 µM (inactive) with SF-295; 16.4 µM (inactive) in the assay on SK-MEL-5; 58.6 µM (inactive) in the assay on SK-OV-3; 80.5 µM (inactive) in the assay on SNB-19; 20.5 µM (inactive) in the assay on SNB-75. Further, the GI50 with SW-620 was 89.3 µM (inactive); with TK-10, 37.1 µM (inactive).

In the case of `O=c1c2c(sc3ccccc13)NCN(CCc1ccccc1)C2`, the GI50 was 67.9 µM (inactive) in the assay on A498; 35.2 µM (inactive) with ACHN; 41.6 µM (inactive) in the assay on CAKI-1; 43.9 µM (inactive) with CCRF-CEM; 18.1 µM (inactive) in the assay with COLO 205; 70.5 µM (inactive) in the assay with DU-145. For the same molecule, the GI50 is 30.8 µM (inactive) in the assay on EKVX; 23.4 µM (inactive) in the assay on HCT-116; > 100 µM (inactive) in the assay on HL-60; 24.7 µM (inactive) in the assay on IGROV-1; 31.2 µM (inactive) in the assay with MOLT-4; 43.7 µM (inactive) with Malme-3M. For the same molecule, the GI50 in the assay with NCI-H522 was 31.7 µM (inactive); in the assay with SF-295 it was 20.7 µM (inactive); with SK-MEL-5, 14.8 µM (inactive); in the assay with SK-OV-3, 66.5 µM (inactive); in the assay on SNB-19 it was 30.8 µM (inactive); in the assay with SNB-75 it was 16.6 µM (inactive). For the same molecule, the GI50 in the assay with SW-620 is 31.8 µM (inactive).
